# Where “and” joins values, the source holds several entries; their conditions need not be identical. Identical values can stand only once. Non-standard residues stand in square brackets, D forms with d. Residues, ends and D or L forms follow the SMILES beside them.
# Assays:
# [1] = system: K. pneumoniae ATCC 700603; experiment: Membrane permeability, SYTOX Green; assay type: cell-based, Klebsiella pneumoniae
# Description: (§1) Fluorescent probe SYTOX^TM Green (Invitrogen/ Life Technologies, S7020) was used to analyze the effect of HT2 and RI-HT2 on membrane permeability of MRSA USA 300 and K. pneumoniae ATCC 700603 as described elsewhere. SYTOX^TM Green is a DNA binding dye that is fluorescent when bound to nucleic acids and only enters cells with compromised plasma membranes. MRSA USA 300 and K. pneumoniae ATCC 700603 were cultured in LB broth to mid log phase at 37 °C and washed with PBS and resuspended (OD595 ≈ 0.1) in the same buffer. SYTOX^TM Green was added into the cell suspension with a final concentration of 5 μM and being kept in dark for 20 min. 98 µL pre-treated cell suspension was transferred into wells of 96-well glass black plates. Then, 2 µL of compound or DMSO were added to initiate the reaction. The final concentrations of HT2 and RI-HT2 were 1 ×, 2 ×, 4 × and 8 × MIC. Fluorescence strength was measured with excitation/emission wavelength of 485/528 nm every 5 min for 60 min.
# MRSA USA 300 [2] = experiment: Membrane permeability, SYTOX Green; assay type: cell-based, Staphylococcus aureus
# Description: as §1
# MRSA USA 300 [3] = experiment: Transmission electron microscopy; assay type: cell-based, Staphylococcus aureus; conditions: 2 × MIC, 60 min
# Description: The processing method of the samples for transmission electron microscopy (TEM) was the same as the treatment for SEM. The samples were then prefixed with 2.5% glutaraldehyde at 4°C overnight, post-fixed with osmium tetroxide for 70 min, and washed twice with PBS (pH 7.4). Subsequently, the samples were dehydrated for 10 min in a graded ethanol series (30, 50, 70, 90, and 100%) followed by 10 min in a mixture of absolute ethanol and acetone (1:1, v/v) and 10 min in absolute acetone. The specimens were transferred to a mixture of absolute acetone and epoxy resin (1:1, v/v) for 30 min and then to pure epoxy resin overnight at a constant temperature. Finally, the samples were sectioned using an ultramicrotome, stained with uranyl acetate and lead citrate, and then observed by TEM (Hitachi H-7650, Japan).
# [4] = system: K. pneumoniae ATCC 700603; experiment: Time-kill assay; assay type: cell-based, Klebsiella pneumoniae
# Description: Time-kill assays were done in tubes (in 1.5 mL of LB) and antibiotics at the 1 ×, 2 ×, 4 × and 8 × MIC. Tubes were inoculated (5 × 10^6 CFU/mL) with MRSA USA 300 and K. pneumoniae ATCC 700603 and incubated at 37 °C under shaking. Serial dilutions of the cultures were plated at each desired time point (0, 1, 3, 6, and 24 h), using a multichannel pipette as follows: in line 1 of a 96-well plate, 100 µL of bacterial suspension was added, while 90 µL of 0.9% sterile saline per well was added to the other lines. At selected time points, 100 µL of bacterial suspension was transferred from the time-kill assay plate to the first line. The wells were further diluted 1 in 10 (0.9% saline) for the appropriate number of dilutions and 10 μL of each dilution was spotted in duplicate onto MH agar plates, then incubated overnight at 37°C. The colonies in each spot were counted and used to calculate the number of viable CFU/mL remaining in the original culture by considering the dilution factors.
# K. pneumoniae 3026 = assay type: cell-based, Klebsiella pneumoniae
# Text: Bacteria were cultivated in Luria-Bertani (LB) broth.
structure (smiles),measurement,setting,value
CC[C@@H](C)[C@@H](NC(=O)[C@@H](Cc1ccccc1)NC(=O)[C@@H](Cc1ccccc1)NC(=O)[C@@H](Cc1ccccc1)NC(=O)[C@H](N)Cc1ccccc1)C(=O)N[C@H](CCCNC(=N)N)C(=O)N[C@H](CCCNC(=N)N)C(=O)N[C@H](CC(C)C)C(=O)N[C@H](Cc1ccccc1)C(=O)N[C@H](CCCNC(=N)N)C(N)=O [RI-HT2] (H-[dF][dF][dF][dF][dI][dR][dR][dL][dF][dR]-NH2; N-terminus assumed),Fluorescence intensity,"[1]; 2 × MIC, time 0 min",1284 and 1283 and 1287
same,Fluorescence intensity,"[1]; 2 × MIC, time 5 min",3609 and 3355 and 3304
same,Fluorescence intensity,"[1]; 2 × MIC, time 10 min",8683 and 7973 and 7881
same,Fluorescence intensity,"[1]; 2 × MIC, time 15 min",14691 and 13649 and 13959
same,Fluorescence intensity,"[1]; 2 × MIC, time 20 min",20043 and 18959 and 19659
same,Fluorescence intensity,"[1]; 2 × MIC, time 25 min",24616 and 23653 and 24172
same,Fluorescence intensity,"[1]; 2 × MIC, time 30 min",28652 and 27362 and 28393
same,Fluorescence intensity,"[1]; 2 × MIC, time 35 min",31775 and 30780 and 31899
same,Fluorescence intensity,"[1]; 4 × MIC, time 0 min",1309 and 1246 and 1149
same,Fluorescence intensity,"[1]; 4 × MIC, time 5 min",36231 and 38899 and 38058
same,Fluorescence intensity,"[1]; 4 × MIC, time 10 min",55462 and 53189 and 56098
same,Fluorescence intensity,"[1]; 4 × MIC, time 15 min",60865 and 61985 and 61514
same,Fluorescence intensity,"[1]; 4 × MIC, time 20 min",61161 and 60954 and 60896
same,Fluorescence intensity,"[1]; 4 × MIC, time 25 min",61613 and 62061 and 61850
same,Fluorescence intensity,"[1]; 4 × MIC, time 30 min",62160 and 62706 and 62610
same,Fluorescence intensity,"[1]; 4 × MIC, time 35 min",62714 and 61385 and 61471
same,Fluorescence intensity,"[1]; 8 × MIC, time 0 min",1294 and 1162 and 1248
same,Fluorescence intensity,"[1]; 8 × MIC, time 5 min",46731 and 44912 and 46760
same,Fluorescence intensity,"[1]; 8 × MIC, time 10 min",54425 and 53299 and 56314
same,Fluorescence intensity,"[1]; 8 × MIC, time 15 min",62319 and 60472 and 61594
same,Fluorescence intensity,"[1]; 8 × MIC, time 20 min",64747 and 64976 and 65277
same,Fluorescence intensity,"[1]; 8 × MIC, time 25 min",65628 and 65784 and 65550
same,Fluorescence intensity,"[1]; 8 × MIC, time 30 min",65623 and 66146 and 65510
same,Fluorescence intensity,"[1]; 8 × MIC, time 35 min",66248 and 66493 and 66011
same,Fluorescence intensity,"[1]; 8 × MIC, time 40 min",66880
same,Fluorescence intensity,"[1]; MIC, time 0 min",1004 and 1023 and 1031
same,Fluorescence intensity,"[1]; MIC, time 5 min",2234 and 2276 and 2181
same,Fluorescence intensity,"[1]; MIC, time 10 min",3718 and 3745 and 3579
same,Fluorescence intensity,"[1]; MIC, time 15 min",5602 and 5647 and 5393
same,Fluorescence intensity,"[1]; MIC, time 20 min",7978 and 7923 and 7560
same,Fluorescence intensity,"[1]; MIC, time 25 min",10663 and 10527 and 10076
same,Fluorescence intensity,"[1]; MIC, time 30 min",13390 and 13373 and 12886
same,Fluorescence intensity,"[1]; MIC, time 35 min",16041 and 16009 and 15623
same,Fluorescence intensity,"[1]; MIC, time 40 min",18514 and 18484 and 18179
same,time to highest SYTOX Green fluorescence intensity,[1]; dose-dependent,≤ 40 min
same,Fluorescence intensity,"MRSA USA 300 [2]; 2 × MIC, time 0 min",1131 and 1217 and 1235
same,Fluorescence intensity,"MRSA USA 300 [2]; 2 × MIC, time 5 min",20197 and 21230 and 20865
same,Fluorescence intensity,"MRSA USA 300 [2]; 2 × MIC, time 10 min",25460 and 25912 and 25261
same,Fluorescence intensity,"MRSA USA 300 [2]; 2 × MIC, time 15 min",28346 and 28832 and 27920
same,Fluorescence intensity,"MRSA USA 300 [2]; 2 × MIC, time 20 min",30460 and 31033 and 29642
same,Fluorescence intensity,"MRSA USA 300 [2]; 2 × MIC, time 25 min",31855 and 32475 and 30920
same,Fluorescence intensity,"MRSA USA 300 [2]; 2 × MIC, time 30 min",32738 and 33363 and 31902
same,Fluorescence intensity,"MRSA USA 300 [2]; 2 × MIC, time 35 min",33433 and 34141 and 32365
same,Fluorescence intensity,"MRSA USA 300 [2]; 4 × MIC, time 0 min",1186 and 1404 and 1281
same,Fluorescence intensity,"MRSA USA 300 [2]; 4 × MIC, time 5 min",40226 and 40219 and 41612
same,Fluorescence intensity,"MRSA USA 300 [2]; 4 × MIC, time 10 min",48704 and 48472 and 50316
same,Fluorescence intensity,"MRSA USA 300 [2]; 4 × MIC, time 15 min",53321 and 53163 and 55112
same,Fluorescence intensity,"MRSA USA 300 [2]; 4 × MIC, time 20 min",56328 and 55931 and 58102
same,Fluorescence intensity,"MRSA USA 300 [2]; 4 × MIC, time 25 min",58334 and 57993 and 60104
same,Fluorescence intensity,"MRSA USA 300 [2]; 4 × MIC, time 30 min",59686 and 59179 and 61418
same,Fluorescence intensity,"MRSA USA 300 [2]; 4 × MIC, time 35 min",60470 and 60307 and 62172
same,Fluorescence intensity,"MRSA USA 300 [2]; 8 × MIC, time 0 min",1486 and 1674 and 1277
same,Fluorescence intensity,"MRSA USA 300 [2]; 8 × MIC, time 5 min",46924 and 49356 and 49374
same,Fluorescence intensity,"MRSA USA 300 [2]; 8 × MIC, time 10 min",54383 and 56666 and 56984
same,Fluorescence intensity,"MRSA USA 300 [2]; 8 × MIC, time 15 min",57832 and 59952 and 60652
same,Fluorescence intensity,"MRSA USA 300 [2]; 8 × MIC, time 20 min",59829 and 61957 and 62485
same,Fluorescence intensity,"MRSA USA 300 [2]; 8 × MIC, time 25 min",61022 and 63005 and 63531
same,Fluorescence intensity,"MRSA USA 300 [2]; 8 × MIC, time 30 min",61916 and 63588 and 64175
same,Fluorescence intensity,"MRSA USA 300 [2]; 8 × MIC, time 35 min",62425 and 64473 and 64696
same,Fluorescence intensity,"MRSA USA 300 [2]; 8 × MIC, time 40 min",62708
same,Fluorescence intensity,"MRSA USA 300 [2]; MIC, time 0 min",1304 and 1201 and 1387
same,Fluorescence intensity,"MRSA USA 300 [2]; MIC, time 5 min",12522 and 12645 and 12185
same,Fluorescence intensity,"MRSA USA 300 [2]; MIC, time 10 min",14676 and 14962 and 14128
same,Fluorescence intensity,"MRSA USA 300 [2]; MIC, time 15 min",16119 and 16290 and 15431
same,Fluorescence intensity,"MRSA USA 300 [2]; MIC, time 20 min",16841 and 16805 and 16042
same,Fluorescence intensity,"MRSA USA 300 [2]; MIC, time 25 min",17216 and 17215 and 16315
same,Fluorescence intensity,"MRSA USA 300 [2]; MIC, time 30 min",17367 and 17359 and 16618
same,Fluorescence intensity,"MRSA USA 300 [2]; MIC, time 35 min",17590 and 17525 and 16584
same,Fluorescence intensity,"MRSA USA 300 [2]; MIC, time 40 min",17600 and 17633 and 16680
same,time to maximum SYTOX Green fluorescence intensity,MRSA USA 300 [2]; different concentrations,≤ 15 min
same,membrane and intracellular structure by TEM (in words),MRSA USA 300 [3],cytoplasmic membranes became blurred and separated
same,"viable count, time-kill","[4]; 2 × MIC, 0 h",12000000 CFU/mL and 16000000 CFU/mL and 14000000 CFU/mL
same,"viable count, time-kill","[4]; 2 × MIC, 1 h",10000 CFU/mL and 17000 CFU/mL and 15000 CFU/mL
same,"viable count, time-kill","[4]; 2 × MIC, 3 h",100 CFU/mL
same,"viable count, time-kill","[4]; 2 × MIC, 6 h",220000 CFU/mL and 310000 CFU/mL and 270000 CFU/mL
same,"viable count, time-kill","[4]; 2 × MIC, 24 h",1000000000000 CFU/mL and 1300000000000 CFU/mL
same,"viable count, time-kill","[4]; 4 × MIC, 0 h",12000000 CFU/mL and 16000000 CFU/mL and 14000000 CFU/mL
same,"viable count, time-kill","[4]; 4 × MIC, 1 h",2500 CFU/mL and 3500 CFU/mL and 3000 CFU/mL
same,"viable count, time-kill","[4]; 4 × MIC, 3 h",0 CFU/mL
same,"viable count, time-kill","[4]; 4 × MIC, 6 h",24000 CFU/mL and 32000 CFU/mL and 30000 CFU/mL
same,"viable count, time-kill","[4]; 4 × MIC, 24 h",3800000 CFU/mL and 3400000 CFU/mL
same,time to complete killing,[4]; 8 × MIC,3 h
same,"viable count, time-kill","[4]; 8 × MIC, 0 h",12000000 CFU/mL and 16000000 CFU/mL and 14000000 CFU/mL
same,"viable count, time-kill","[4]; 8 × MIC, 1 h",300 CFU/mL and 500 CFU/mL
same,"viable count, time-kill","[4]; 8 × MIC, 3 h",0 CFU/mL
same,"viable count, time-kill","[4]; 8 × MIC, 6 h",0 CFU/mL
same,"viable count, time-kill","[4]; 8 × MIC, 24 h",0 CFU/mL
same,"viable count, time-kill","[4]; MIC, 0 h",12000000 CFU/mL and 16000000 CFU/mL and 14000000 CFU/mL
same,"viable count, time-kill","[4]; MIC, 1 h",270000 CFU/mL and 230000 CFU/mL and 250000 CFU/mL
same,"viable count, time-kill","[4]; MIC, 3 h",23000 CFU/mL and 16000 CFU/mL and 17000 CFU/mL
same,"viable count, time-kill","[4]; MIC, 6 h",3400000 CFU/mL and 2800000 CFU/mL and 3800000 CFU/mL
same,"viable count, time-kill","[4]; MIC, 24 h",1000000000000 CFU/mL and 1200000000000 CFU/mL and 1700000000000 CFU/mL
same,MIC Gram- K. p 3026,K. pneumoniae 3026,3.13 µM

# Reference: article PMC10657444, “Design and evaluation of tadpole-like conformational antimicrobial peptides” (Communications Biology, 2023)
